Measurements taken from ChEMBL document CHEMBL3885861, “Open TG-GATES”.

Species: Rattus norvegicus
Test: Open TG-GATES - Regimen: Daily Repeat
Assay type: toxicity, organism-based, Sprague-Dawley
Set-up: regimen Daily Repeat, gender Male, age 6 weeks
Settings: in vivo, po, 400 mg/kg, route gavage, dose level High; for APTT / Bas / Eos / Fbg / Ht / Lym / MCHC / MCV / Mono / PT / Plat / RBC / Ret / WBC: tissue Blood; for KIDNEY_L / KIDNEY_R / KIDNEY_TOTAL: tissue Kidney; for LIVER: tissue Liver; for ALP / ALT / AST / BUN / CRE / Ca / Cl / DBIL / IP / LDH / Na / PL / RALB / TBIL / TC / TG / TP / gamma-GTP: tissue Plasma

CC(C)N(CCC(C(N)=O)(c1ccccc1)c1ccccn1)C(C)C (stereo not drawn) [DISOPYRAMIDE]
TERMINAL_BW (72 h, time 3 day): 214.9 g | APTT (72 h, time 3 day): 22.4 s | Bas (72 h, time 3 day): 0% | Eos (72 h, time 3 day): 0.8% | Fbg (72 h, time 3 day): 351.2 mg/dL | Ht (72 h, time 3 day): 42.4% | Lym (72 h, time 3 day): 73.2% | MCHC (72 h, time 3 day): 32.4% | MCV (72 h, time 3 day): 62.3 fL | Mono (72 h, time 3 day): 2% | PT (72 h, time 3 day): 15.6 s | Plat (72 h, time 3 day): 129.4 x10_4/uL | RBC (72 h, time 3 day): 681.2 x10_4/ul | Ret (72 h, time 3 day): 3.3% | WBC (72 h, time 3 day): 80.5 x10_2/uL | KIDNEY_L (72 h, time 3 day): 0.9 g | KIDNEY_R (72 h, time 3 day): 1 g | KIDNEY_TOTAL (72 h, time 3 day): 1.9 g | LIVER (72 h, time 3 day): 9.5 g | ALP (72 h, time 3 day): 1597.6 IU/L | ALT (72 h, time 3 day): 40.4 IU/L | AST (72 h, time 3 day): 70.2 IU/L | BUN (72 h, time 3 day): 12.8 mg/dL | CRE (72 h, time 3 day): 0.2 mg/dL | Ca (72 h, time 3 day): 10.8 mg/dL | Cl (72 h, time 3 day): 107.2 meq/L | DBIL (72 h, time 3 day): 0 mg/dL | IP (72 h, time 3 day): 7.4 mg/dL | LDH (72 h, time 3 day): 182.6 IU/L | Na (72 h, time 3 day): 143 meq/L | PL (72 h, time 3 day): 137.8 mg/dL | RALB (72 h, time 3 day): 2.9 g/dL | TBIL (72 h, time 3 day): 0 mg/dL | TC (72 h, time 3 day): 74.4 mg/dL | TG (72 h, time 3 day): 83.6 mg/dL | TP (72 h, time 3 day): 5.5 g/dL | gamma-GTP (72 h, time 3 day): 1.4 IU/L | TERMINAL_BW ([…], time 7 day): 229.8 g | TERMINAL_BW ([…], time 14 day): 278.8 g | TERMINAL_BW ([…], time 28 day): 316.5 g | APTT ([…], time 7 day): 23.9 s | Bas ([…], time 7 day): 0% | Eos ([…], time 7 day): 1.2% | Fbg ([…], time 7 day): 346.8 mg/dL | Ht ([…], time 7 day): 41.6% | Lym ([…], time 7 day): 74.4% | MCHC ([…], time 7 day): 33.3% | MCV ([…], time 7 day): 60.2 fL | Mono ([…], time 7 day): 3% | PT ([…], time 7 day): 15.7 s | Plat ([…], time 7 day): 112.7 x10_4/uL | RBC ([…], time 7 day): 691.2 x10_4/ul | Ret ([…], time 7 day): 4.2% | WBC ([…], time 7 day): 123.8 x10_2/uL | APTT ([…], time 14 day): 25.3 s | Bas ([…], time 14 day): 0% | Eos ([…], time 14 day): 1% | Fbg ([…], time 14 day): 316.4 mg/dL | Ht ([…], time 14 day): 41.7% | Lym ([…], time 14 day): 79.4% | MCHC ([…], time 14 day): 32.7% | MCV ([…], time 14 day): 58.7 fL | Mono ([…], time 14 day): 1.8% | PT ([…], time 14 day): 15.2 s | Plat ([…], time 14 day): 102.3 x10_4/uL | RBC ([…], time 14 day): 710.4 x10_4/ul | Ret ([…], time 14 day): 4.4% | WBC ([…], time 14 day): 103 x10_2/uL | APTT ([…], time 28 day): 26 s | Bas ([…], time 28 day): 0% | Eos ([…], time 28 day): 1.2% | Fbg ([…], time 28 day): 345.5 mg/dL | Ht ([…], time 28 day): 44.9% | Lym ([…], time 28 day): 79% | MCHC ([…], time 28 day): 33.7% | MCV ([…], time 28 day): 55.6 fL | Mono ([…], time 28 day): 2.5% | PT ([…], time 28 day): 15.3 s | Plat ([…], time 28 day): 98.6 x10_4/uL | RBC ([…], time 28 day): 808.8 x10_4/ul | Ret ([…], time 28 day): 2.4% | WBC ([…], time 28 day): 105 x10_2/uL | KIDNEY_L ([…], time 7 day): 1 g | KIDNEY_R ([…], time 7 day): 1 g | KIDNEY_TOTAL ([…], time 7 day): 2 g | KIDNEY_L ([…], time 14 day): 1.1 g | KIDNEY_R ([…], time 14 day): 1.2 g | KIDNEY_TOTAL ([…], time 14 day): 2.3 g | KIDNEY_L ([…], time 28 day): 1.2 g | KIDNEY_R ([…], time 28 day): 1.3 g | KIDNEY_TOTAL ([…], time 28 day): 2.5 g | LIVER ([…], time 7 day): 11 g | LIVER ([…], time 14 day): 12.8 g | LIVER ([…], time 28 day): 13.4 g | ALP ([…], time 7 day): 1394 IU/L | ALT ([…], time 7 day): 45 IU/L | AST ([…], time 7 day): 67.2 IU/L | BUN ([…], time 7 day): 14.8 mg/dL | CRE ([…], time 7 day): 0.2 mg/dL | Ca ([…], time 7 day): 10.8 mg/dL | Cl ([…], time 7 day): 105.4 meq/L | DBIL ([…], time 7 day): 0 mg/dL | IP ([…], time 7 day): 8 mg/dL | LDH ([…], time 7 day): 160.8 IU/L | Na ([…], time 7 day): 141.6 meq/L | PL ([…], time 7 day): 170.6 mg/dL | RALB ([…], time 7 day): 2.9 g/dL | TBIL ([…], time 7 day): 0 mg/dL | TC ([…], time 7 day): 80.6 mg/dL | TG ([…], time 7 day): 195.4 mg/dL | TP ([…], time 7 day): 5.4 g/dL | gamma-GTP ([…], time 7 day): 1.4 IU/L | ALP ([…], time 14 day): 1544.2 IU/L | ALT ([…], time 14 day): 44 IU/L | AST ([…], time 14 day): 68 IU/L | BUN ([…], time 14 day): 15.2 mg/dL | CRE ([…], time 14 day): 0.1 mg/dL | Ca ([…], time 14 day): 10.6 mg/dL | Cl ([…], time 14 day): 104.2 meq/L | DBIL ([…], time 14 day): 0 mg/dL | IP ([…], time 14 day): 7.9 mg/dL | LDH ([…], time 14 day): 149.6 IU/L | Na ([…], time 14 day): 143.2 meq/L | PL ([…], time 14 day): 149.6 mg/dL | RALB ([…], time 14 day): 3 g/dL | TBIL ([…], time 14 day): 0.002 mg/dL | TC ([…], time 14 day): 74.4 mg/dL | TG ([…], time 14 day): 147.2 mg/dL | TP ([…], time 14 day): 5.6 g/dL | gamma-GTP ([…], time 14 day): 1.6 IU/L | ALP ([…], time 28 day): 1456 IU/L | ALT ([…], time 28 day): 66 IU/L | AST ([…], time 28 day): 98.2 IU/L | BUN ([…], time 28 day): 17.5 mg/dL | CRE ([…], time 28 day): 0.2 mg/dL | Ca ([…], time 28 day): 10.4 mg/dL | Cl ([…], time 28 day): 106 meq/L | DBIL ([…], time 28 day): 0 mg/dL | IP ([…], time 28 day): 6.6 mg/dL | LDH ([…], time 28 day): 170.5 IU/L | Na ([…], time 28 day): 141.2 meq/L | PL ([…], time 28 day): 152.5 mg/dL | RALB ([…], time 28 day): 3 g/dL | TBIL ([…], time 28 day): 0 mg/dL | TC ([…], time 28 day): 75.5 mg/dL | TG ([…], time 28 day): 165.2 mg/dL | TP ([…], time 28 day): 5.8 g/dL | gamma-GTP ([…], time 28 day): 2 IU/L
